Assay results: ChEMBL document CHEMBL4823297, “Anticancer properties of bisaminoquinolines with modified linkers” (Bioorg Med Chem Lett, 2021)

Columns and labels:
[1] = Inhibition of autophagy in human A375P cells assessed as fold change in BNIP3 at 3 uM incubated for 24 hrs by immunoblot analysis relative to control; assay type: functional
[2] = Inhibition of autophagy in human A375P cells assessed as fold change in p62 at 3 uM incubated for 24 hrs by immunoblot analysis relative to control; assay type: functional
[3] = Inhibition of autophagy in human A375P cells assessed as fold change in LC3BII/ LC3BI ratio at 3 uM incubated for 24 hrs by immunoblot analysis relative to control; assay type: functional
[4] = Inhibition of autophagy in human A375P cells assessed as fold change in p-H2AX at 3 uM incubated for 24 hrs by immunoblot analysis relative to control; assay type: functional
[5] = Cytotoxicity against human A375P cells incubated for 72 hrs by MTT assay; assay type: functional, cell-based
[6] = Inhibition of autophagy in human A375P cells assessed as fold change in BNIP3 at 10 uM incubated for 24 hrs by immunoblot analysis relative to control; assay type: functional
[7] = Inhibition of autophagy in human A375P cells assessed as fold change in p62 at 10 uM incubated for 24 hrs by immunoblot analysis relative to control; assay type: functional
[8] = Inhibition of autophagy in human A375P cells assessed as fold change in LC3BII/ LC3BI ratio at 10 uM incubated for 24 hrs by immunoblot analysis relative to control; assay type: functional
[9] = Inhibition of autophagy in human A375P cells assessed as fold change in H2AX at 10 uM incubated for 24 hrs by immunoblot analysis relative to control; assay type: functional

SMILES | fold change (FC) [1] | fold change (FC) [2] | fold change (FC) [3] | fold change (FC) [4] | IC50 [5] [nM] | fold change (FC) [6] | fold change (FC) [7] | fold change (FC) [8] | fold change (FC) [9]
Clc1ccc2c(NCCCCCCNCCCCCCNc3ccnc4cc(Cl)ccc34)ccnc2c1 | 1.3 | 1.1 | 15.2 | 20.8 | – | – | – | – | –
NCCN(CCNc1ccnc2cc(Cl)ccc12)CCNc1ccnc2cc(Cl)ccc12 | – | – | – | – | 12300 | 0.7 | 0.5 | 1 | 1.4
CCOCCOCCN(CCCCCCNc1ccnc2cc(Cl)ccc12)CCCCCCNc1ccnc2cc(Cl)ccc12 | 5.1 | 2.7 | 28 | – | 650 | – | – | – | –
CCCCCCCCN(CCCCCCNc1ccnc2cc(Cl)ccc12)CCCCCCNc1ccnc2cc(Cl)ccc12 | 0.7 | 1.6 | 27 | – | 420 | – | – | – | –
CN(C)CCN(CCNc1ccnc2cc(Cl)ccc12)CCNc1ccnc2cc(Cl)ccc12 | – | – | – | – | 4600 | 1.7 | 0.8 | 4.8 | 3
CNCCN(CCNc1ccnc2cc(Cl)ccc12)CCNc1ccnc2cc(Cl)ccc12 | – | – | – | – | 13000 | 0.4 | 0.6 | 0.8 | 1.4
CCCCCCCCN(CCNc1ccnc2cc(Cl)ccc12)CCNc1ccnc2cc(Cl)ccc12 | 5.9 | 4 | 26 | – | 1280 | – | – | – | –
CCOCCOCCN(CCNc1ccnc2cc(Cl)ccc12)CCNc1ccnc2cc(Cl)ccc12 | – | – | – | – | 5990 | – | – | – | –
CN(CCCCCCNc1ccnc2cc(Cl)ccc12)CCCCCCNc1ccnc2cc(Cl)ccc12 | 3.2 | 1.8 | 24 | 4.7 | 490 | – | – | – | –
